From paper PMC3422893 (Journal of medicinal chemistry, 2011)

Legend:
SAPK/JNK = test: Western blot of SAPK/JNK pathway activation in H1703 cells; type: cell-based, human
ATF3 = test: Western blot of ATF3 protein in H1703 cells; type: cell-based, human
H1703 xenograft tumors = test: H&E staining and immunohistochemistry of xenograft tumors; type: in vivo, athymic NCr-nu/nu mice
H1703 cells = test: H1703 non-small cell lung cancer xenograft model; type: in vivo, athymic NCr-nu/nu mice; conditions: three times a week for 3 weeks
PARP = test: Western blot of PARP cleavage; type: cell-based, human; conditions: H1703 cells, 1 µM, 1, 4, or 6 h

Structure (SMILES): O=C1c2ccccc2-c2n[nH]c3cccc1c23 [1,9-pyrazoloanthrone, reference compound]
- effect on 1-induced activation of ATF2 and c-jun (SAPK/JNK; pretreatment 50 µM, 30 min): inhibited
- effect on 1-induced ATF3 upregulation (ATF3; pretreatment 50 µM, 30 min): partially blocked

Structure (SMILES): CCOC(=O)N1CCN(/[N+]([O-])=N/Oc2cc(C)c([N+](=O)[O-])cc2[N+](=O)[O-])CC1 [Compound 6, O^2-(2,4-Dinitro-5-methylphenyl) 1-[(4-Ethoxycarbonyl)piperazin-1-yl]diazen-1-ium-1,2-diolate]
- ATF3 protein level in tumors, immunohistochemistry (H1703 xenograft tumors; 8 µmol/kg i.v.): comparable to that of the control
- P-SAPK/JNK in tumors, immunohistochemistry (H1703 xenograft tumors; 8 µmol/kg i.v.): did not stain for P-SAPK/JNK
- growth of H1703 cells in vivo (H1703 cells; 8 µmol/kg i.v.): did not result in reduction in H1703 tumor growth in vivo

Structure (SMILES): O=S(=O)(O)c1cc(O)c(O)c(S(=O)(=O)O)c1 [Tiron, reference compound]
- effect on SAPK/JNK phosphorylation resulting from 1 or 2 (SAPK/JNK; pretreatment 10 mM for 1 h, then 30-min incubation with 1 or 2): attenuated SAPK/JNK phosphorylation

Structure (SMILES): CCOC(=O)N1CCN(/[N+]([O-])=N/Oc2ccc([N+](=O)[O-])cc2[N+](=O)[O-])CC1 [Compound 1, O^2-(2,4-dinitrophenyl) 1-[(4-ethoxycarbonyl)piperazin-1-yl]diazen-1-ium-1,2-diolate]
- ATF3 protein level in tumors, immunohistochemistry (H1703 xenograft tumors; 6 µmol/kg i.v.): upregulation in ATF3 protein level
- P-SAPK/JNK in tumors, immunohistochemistry (H1703 xenograft tumors; 6 µmol/kg i.v.): phosphorylation of SAPK/JNK
- tissue death in tumors, H&E staining (H1703 xenograft tumors; 6 µmol/kg i.v.): significant tissue death
- cleavage of PARP (PARP): resulted in cleavage of PARP
- SAPK/JNK activation (phosphorylation) (SAPK/JNK): caused SAPK/JNK activation
- time to detection of SAPK/JNK phosphorylation (SAPK/JNK; 1 µM): ≤ 30 min
- growth of H1703 cells in vivo (H1703 cells; 6 µmol/kg i.v.): significantly reduced growth
- ATF3 protein expression (ATF3; 1 µM): induced
